Laboratory results: patent publication US20260285850A1, “SUBSTITUTED OXAZOLIDINONES AND IMIDAZOLINONES AS HERBICIDES” (FMC CORPORATION, priority 2023, published 2026)

Columns and labels:
Assay type in all cases: in vivo
corn (Zea mays) [1] = assay: Test A postemergence application, visual injury rating 0-100; settings: 10 days
From the text: (§1) Seeds of plant species selected from barnyardgrass (Echinochloa crus-galli), blackgrass (Alopecurus myosuroides), corn (Zea mays), foxtail, giant (giant foxtail, Setaria faberi), green foxtail (Setaria viridis), goosegrass (Eleusine indica), kochia (Bassia scoparia), oat, wild (wild oat, Avena fatua), palmer (palmer amaranth, palmer pigweed, Amaranthus palmeri), ragweed (common ragweed, Ambrosia artemisiifolia), ryegrass, Italian (italian ryegrass, Lolium multiflorum), soybean (Glycine max) and wheat (Triticum aestivum) were planted into a blend of loam soil and sand and treated preemergence with a directed soil spray using test chemicals formulated in a non-phytotoxic solvent mixture which included a surfactant.
(§2) At the same time, plants selected from these crops and weed species and also galium (catchweed bedstraw, Galium aparine) and horseweed (Erigeron canadensis) were planted in pots containing the same blend of loam soil and sand and treated with postemergence applications of test chemicals formulated in the same manner. Plants ranged in height from 2 to 10 cm and were in the one- to two-leaf stage for the postemergence treatment. Treated plants and untreated controls were maintained in a greenhouse for 10 days, after which time all treated plants were compared to untreated controls and visually evaluated for injury. Plant response ratings, summarized in Table A, are based on a 0 to 100 scale where 0 is no effect and 100 is complete control. A dash (-) response means no test result.

kochia (Bassia scoparia) [2] = assay: as above; settings: 10 days
From the text: as §1, §2

[3] = tested on: blackgrass (Alopecurus myosuroides); assay: as above; settings: 10 days
From the text: as §1, §2

[4] = tested on: ryegrass, Italian (italian ryegrass, Lolium multiflorum); assay: as above; settings: 10 days
From the text: as §1, §2

[5] = tested on: green foxtail (Setaria viridis); assay: as above; settings: 10 days
From the text: as §1, §2

[6] = tested on: wheat (Triticum aestivum); assay: as above; settings: 10 days
From the text: as §1, §2

[7] = tested on: barnyardgrass (Echinochloa crus-galli); assay: as above; settings: 10 days
From the text: as §1, §2

[8] = tested on: oat, wild (wild oat, Avena fatua); assay: as above; settings: 10 days
From the text: as §1, §2

[9] = tested on: horseweed (Erigeron canadensis); assay: as above; settings: 10 days
From the text: as §1, §2

[10] = tested on: ragweed (common ragweed, Ambrosia artemisiifolia); assay: as above; settings: 10 days
From the text: as §1, §2

[11] = tested on: palmer (palmer amaranth, palmer pigweed, Amaranthus palmeri); assay: as above; settings: 10 days
From the text: as §1, §2

soybean (Glycine max) [12] = assay: as above; settings: 10 days
From the text: as §1, §2

rice (Oryza sativa) = assay: Test B flooded paddy test, visual plant response rating 0-100; settings: 250 g ai/ha, Flood, applied to paddy water, evaluated after 13 days
Protocol: (§3) Plant species in the flooded paddy test selected from barnyardgrass (Echinochloa crusgalli), ducksalad (Heteranthera limosa), rice (Oryza sativa), and sedge, umbrella (small-flower umbrella sedge, Cyperus difformis) were grown to the 2-leaf stage for testing. At time of treatment, test pots were flooded to 3 cm above the soil surface, treated by application of test compounds directly to the paddy water, and then maintained at that water depth for the duration of the test. Treated plants and controls were maintained in a greenhouse for 13 days, after which time all species were compared to controls and visually evaluated. […] A dash (-) response means no test result.

[13] = tested on: sedge, umbrella (small-flower umbrella sedge, Cyperus difformis); assay: as above; settings: 250 g ai/ha, Flood, applied to paddy water, evaluated after 13 days
Protocol: as §3

[14] = tested on: ducksalad (Heteranthera limosa); assay: as above; settings: 250 g ai/ha, Flood, applied to paddy water, evaluated after 13 days
Protocol: as §3

[15] = tested on: barnyardgrass (Echinochloa crusgalli); assay: as above; settings: 250 g ai/ha, Flood, applied to paddy water, evaluated after 13 days
Protocol: as §3

corn (Zea mays) [16] = assay: Test A preemergence soil spray, visual injury rating 0-100; settings: 10 days, 0 = no effect, 100 = complete control
From the text: as §1, §2

kochia (Bassia scoparia) [17] = assay: as above; settings: 10 days, 0 = no effect, 100 = complete control
From the text: as §1, §2

[18] = tested on: blackgrass (Alopecurus myosuroides); assay: as above; settings: 10 days, 0 = no effect, 100 = complete control
From the text: as §1, §2

[19] = tested on: ryegrass, Italian (italian ryegrass, Lolium multiflorum); assay: as above; settings: 10 days, 0 = no effect, 100 = complete control
From the text: as §1, §2

[20] = tested on: green foxtail (Setaria viridis); assay: as above; settings: 10 days, 0 = no effect, 100 = complete control
From the text: as §1, §2

[21] = tested on: wheat (Triticum aestivum); assay: as above; settings: 10 days, 0 = no effect, 100 = complete control
From the text: as §1, §2

[22] = tested on: barnyardgrass (Echinochloa crus-galli); assay: as above; settings: 10 days, 0 = no effect, 100 = complete control
From the text: as §1, §2

[23] = tested on: oat, wild (wild oat, Avena fatua); assay: as above; settings: 10 days, 0 = no effect, 100 = complete control
From the text: as §1, §2

[24] = tested on: ragweed (common ragweed, Ambrosia artemisiifolia); assay: as above; settings: 10 days, 0 = no effect, 100 = complete control
From the text: as §1, §2

[25] = tested on: palmer (palmer amaranth, palmer pigweed, Amaranthus palmeri); assay: as above; settings: 10 days, 0 = no effect, 100 = complete control
From the text: as §1, §2

soybean (Glycine max) [26] = assay: as above; settings: 10 days, 0 = no effect, 100 = complete control
From the text: as §1, §2

[27] = 31 g ai/ha, postemergence, 0 = no effect, 100 = complete control
[28] = Postemergence, 125 g ai/ha, 0 is no effect, 100 is complete control

## CNC(=O)C1CC(NC(=O)C2(C)CN(c3cc(F)cc(F)c3)C(=O)O2)CO1 (centres unmarked) [Compound 8]
Corn (Zea mays) [1]; [27]
  Corn plant response rating (0-100): 0
Corn (Zea mays) [1]; [28]
  Corn plant response rating (0 to 100 scale): 0
Kochia (Bassia scoparia) [2]; [27]
  Kochia plant response rating (0-100): 0
Kochia (Bassia scoparia) [2]; [28]
  Kochia plant response rating (0 to 100 scale): 20
[3]; [27]
  Blackgrass plant response rating (0-100): 0
[3]; [28]
  Blackgrass plant response rating (0 to 100 scale): 90
[4]; [27]
  Ryegrass, Italian plant response rating (0-100): 0
[4]; [28]
  Ryegrass, Italian plant response rating (0 to 100 scale): 0
[5]; [27]
  Foxtail, Green plant response rating (0-100): 0
[5]; [28]
  Foxtail, Green plant response rating (0 to 100 scale): 0
[6]; [27]
  Wheat plant response rating (0-100): 0
[6]; [28]
  Wheat plant response rating (0 to 100 scale): 20
[7]; [27]
  Barnyardgrass plant response rating (0-100): 0
[7]; [28]
  Barnyardgrass plant response rating (0 to 100 scale): 0
[8]; [27]
  Oat, Wild plant response rating (0-100): 0
[8]; [28]
  Oat, Wild plant response rating (0 to 100 scale): 0
[9]; [27]
  Horseweed plant response rating (0-100): 30
[9]; [28]
  Horseweed plant response rating (0 to 100 scale): 10
[10]; [27]
  Ragweed plant response rating (0-100): 0
[10]; [28]
  Ragweed plant response rating (0 to 100 scale): 0
[11]; [27]
  Amaranth, Palmer plant response rating (0-100): 0
[11]; [28]
  Amaranth, Palmer / Pigweed, Palmer plant response rating (0 to 100 scale): 0
Soybean (Glycine max) [12]; [27]
  Soybean plant response rating (0-100): 0
Soybean (Glycine max) [12]; [28]
  Soybean plant response rating (0 to 100 scale): 0
Rice (Oryza sativa)
  Plant response rating, Rice (0 to 100 scale, 0 is no effect and 100 is complete control): 0
[13]
  Plant response rating, Sedge, Umbrella (0 to 100 scale, 0 is no effect and 100 is complete control): 0
[14]
  Plant response rating, Ducksalad (0 to 100 scale, 0 is no effect and 100 is complete control): 0
[15]
  Plant response rating, Barnyardgrass (0 to 100 scale, 0 is no effect and 100 is complete control): 0
Corn (Zea mays) [16]; 31 g ai/ha
  Corn plant response rating (0-100): 0
Corn (Zea mays) [16]; 125 g ai/ha
  Corn plant response rating (0 to 100 scale): 0
Kochia (Bassia scoparia) [17]; 31 g ai/ha
  Kochia plant response rating (0-100): 0
Kochia (Bassia scoparia) [17]; 125 g ai/ha
  Kochia plant response rating (0 to 100 scale): 70
[18]; 31 g ai/ha
  Blackgrass plant response rating (0-100): 0
[18]; 125 g ai/ha
  Blackgrass plant response rating (0 to 100 scale): 50
[19]; 31 g ai/ha
  Ryegrass, Italian plant response rating (0-100): 0
[19]; 125 g ai/ha
  Ryegrass, Italian plant response rating (0 to 100 scale): 60
[20]; 31 g ai/ha
  Foxtail, Green plant response rating (0-100): 0
[20]; 125 g ai/ha
  Foxtail, Green plant response rating (0 to 100 scale): 40
[21]; 31 g ai/ha
  Wheat plant response rating (0-100): 0
[21]; 125 g ai/ha
  Wheat plant response rating (0 to 100 scale): 80
[22]; 31 g ai/ha
  Barnyardgrass plant response rating (0-100): 0
[22]; 125 g ai/ha
  Barnyardgrass plant response rating (0 to 100 scale): 10
[23]; 31 g ai/ha
  Oat, Wild plant response rating (0-100): 0
[23]; 125 g ai/ha
  Oat, Wild plant response rating (0 to 100 scale): 20
[24]; 31 g ai/ha
  Ragweed plant response rating (0-100): 60
[24]; 125 g ai/ha
  Ragweed plant response rating (0 to 100 scale): 0
[25]; 31 g ai/ha
  Amaranth, Palmer plant response rating (0-100): 0
[25]; 125 g ai/ha
  Amaranth, Palmer plant response rating (0 to 100 scale): 0
Soybean (Glycine max) [26]; 31 g ai/ha
  Soybean plant response rating (0-100): 0
Soybean (Glycine max) [26]; 125 g ai/ha
  Soybean plant response rating (0 to 100 scale): 0
